Experiment: xn = mol fraction of the nth substance listed
Settings: 100 kPa, Liquid; for speed of sound: Pulse-echo method; for mass density: Vibrating tube method

CNc1ccccc1 [N-methylaniline] + Cc1ccccc1
Settings	mass density [kg/m3]	speed of sound [m/s]
293.15 K, x1 = 0.0541	873.9	1339.3
293.15 K, x1 = 0.0986	879.611	1350.5
293.15 K, x1 = 0.1502	886.145	1363.2
293.15 K, x1 = 0.1989	892.268	1375.1
293.15 K, x1 = 0.2473	898.297	1387
293.15 K, x1 = 0.2982	904.623	1399.7
293.15 K, x1 = 0.35	910.972	1412.6
293.15 K, x1 = 0.3898	915.862	1422.7
293.15 K, x1 = 0.446	922.654	1436.8
293.15 K, x1 = 0.4872	927.615	1447.3
293.15 K, x1 = 0.5426	934.227	1461.5
293.15 K, x1 = 0.5859	939.349	1472.7
293.15 K, x1 = 0.6441	946.179	1487.8
293.15 K, x1 = 0.6894	951.429	1499.7
293.15 K, x1 = 0.7385	957.096	1512.7
293.15 K, x1 = 0.7823	962.1	1524.3
293.15 K, x1 = 0.8377	968.392	1539.6
293.15 K, x1 = 0.8834	973.522	1551.3
293.15 K, x1 = 0.9299	978.698	1563.7
298.15 K, x1 = 0.0532	869.146	1317.9
298.15 K, x1 = 0.0998	875.098	1329.6
298.15 K, x1 = 0.1518	881.77	1342.7
298.15 K, x1 = 0.1906	886.675	1352.4
298.15 K, x1 = 0.2452	893.525	1366
298.15 K, x1 = 0.2887	898.955	1377
298.15 K, x1 = 0.3417	905.492	1390.3
298.15 K, x1 = 0.39	911.437	1402.7
298.15 K, x1 = 0.4434	917.945	1416.3
298.15 K, x1 = 0.49	923.58	1428.3
298.15 K, x1 = 0.5415	929.747	1441.7
298.15 K, x1 = 0.5792	934.236	1451.5
298.15 K, x1 = 0.6432	941.787	1468.4
298.15 K, x1 = 0.6868	946.88	1479.9
298.15 K, x1 = 0.7407	953.128	1494.3
298.15 K, x1 = 0.7823	957.907	1505.4
298.15 K, x1 = 0.8378	964.233	1520.4
298.15 K, x1 = 0.8844	969.501	1533
298.15 K, x1 = 0.934	975.057	1546.4
303.15 K, x1 = 0.053	864.574	1297.3
303.15 K, x1 = 0.0982	870.409	1308.8
303.15 K, x1 = 0.1501	877.091	1321.9
303.15 K, x1 = 0.1929	882.501	1332.7
303.15 K, x1 = 0.2456	889.168	1346.1
303.15 K, x1 = 0.2837	893.953	1355.7
303.15 K, x1 = 0.3444	901.518	1371.2
303.15 K, x1 = 0.3919	907.37	1383.4
303.15 K, x1 = 0.4478	914.21	1397.8
303.15 K, x1 = 0.4918	919.549	1409.3
303.15 K, x1 = 0.5391	925.243	1421.7
303.15 K, x1 = 0.5886	931.18	1434.7
303.15 K, x1 = 0.6395	937.212	1448.2
303.15 K, x1 = 0.6846	942.503	1460.2
303.15 K, x1 = 0.7398	948.933	1475
303.15 K, x1 = 0.7782	953.381	1485.3
303.15 K, x1 = 0.842	960.67	1502.3
303.15 K, x1 = 0.879	964.897	1512.7
303.15 K, x1 = 0.934	971.087	1527.6

CNc1ccccc1 [N-methylaniline] + CCCCCCC
Settings	mass density [kg/m3]	speed of sound [m/s]
293.15 K, x1 = 0.054	695.999	1164.1
293.15 K, x1 = 0.1084	708.778	1177.2
293.15 K, x1 = 0.1536	719.814	1188.4
293.15 K, x1 = 0.2	731.341	1200
293.15 K, x1 = 0.2556	745.704	1214.5
293.15 K, x1 = 0.2976	756.81	1226.1
293.15 K, x1 = 0.3473	770.261	1240.6
293.15 K, x1 = 0.3944	783.41	1255.2
293.15 K, x1 = 0.4485	798.879	1273.5
293.15 K, x1 = 0.4953	812.615	1291
293.15 K, x1 = 0.5355	824.725	1306.9
293.15 K, x1 = 0.599	844.458	1335
293.15 K, x1 = 0.6436	858.711	1356.6
293.15 K, x1 = 0.7024	878.07	1387.7
293.15 K, x1 = 0.7457	892.769	1412.5
293.15 K, x1 = 0.7858	906.675	1436.7
293.15 K, x1 = 0.8459	928.153	1474.7
293.15 K, x1 = 0.8952	946.22	1507.9
293.15 K, x1 = 0.9491	966.608	1545.5
298.15 K, x1 = 0.0577	692.58	1143.9
298.15 K, x1 = 0.1072	704.27	1156.2
298.15 K, x1 = 0.1473	713.999	1166.3
298.15 K, x1 = 0.2055	728.558	1181.4
298.15 K, x1 = 0.2595	742.491	1193.9
298.15 K, x1 = 0.3033	754.107	1208.3
298.15 K, x1 = 0.3401	764.024	1219.2
298.15 K, x1 = 0.3955	779.471	1236.7
298.15 K, x1 = 0.4559	796.765	1257.6
298.15 K, x1 = 0.503	810.692	1275.5
298.15 K, x1 = 0.5431	822.843	1291.9
298.15 K, x1 = 0.5956	839.178	1315.3
298.15 K, x1 = 0.6441	854.671	1338.8
298.15 K, x1 = 0.6995	872.931	1368.1
298.15 K, x1 = 0.7491	889.715	1396.2
298.15 K, x1 = 0.7964	906.279	1425.1
298.15 K, x1 = 0.8446	923.55	1455.9
298.15 K, x1 = 0.8949	942.036	1489.6
298.15 K, x1 = 0.9465	961.528	1525.6
303.15 K, x1 = 0.0615	689.386	1124.9
303.15 K, x1 = 0.1111	701.082	1137.5
303.15 K, x1 = 0.1548	711.723	1148.8
303.15 K, x1 = 0.2069	724.76	1162.6
303.15 K, x1 = 0.2501	735.88	1174.4
303.15 K, x1 = 0.2964	748.035	1187.5
303.15 K, x1 = 0.348	762.057	1203.2
303.15 K, x1 = 0.3979	775.964	1219.2
303.15 K, x1 = 0.4513	791.356	1238
303.15 K, x1 = 0.5003	805.793	1256.5
303.15 K, x1 = 0.5583	823.48	1280.8
303.15 K, x1 = 0.5988	836.196	1299.2
303.15 K, x1 = 0.647	851.618	1322.6
303.15 K, x1 = 0.7026	869.963	1351.9
303.15 K, x1 = 0.7475	885.221	1377.4
303.15 K, x1 = 0.7954	901.919	1406.3
303.15 K, x1 = 0.8446	919.525	1437.5
303.15 K, x1 = 0.8917	936.846	1468.8
303.15 K, x1 = 0.9404	955.244	1502.4

CNc1ccccc1 [N-methylaniline] + C1CCCCC1
Settings	mass density [kg/m3]	speed of sound [m/s]
293.15 K, x1 = 0.0516	787.947	1285.7
293.15 K, x1 = 0.1047	798.075	1294.4
293.15 K, x1 = 0.1522	807.416	1303
293.15 K, x1 = 0.2023	817.479	1313.2
293.15 K, x1 = 0.2482	826.755	1322.9
293.15 K, x1 = 0.3018	837.718	1335.3
293.15 K, x1 = 0.3462	846.906	1346.3
293.15 K, x1 = 0.4049	859.091	1362
293.15 K, x1 = 0.4478	868.011	1374.1
293.15 K, x1 = 0.4972	878.435	1389.1
293.15 K, x1 = 0.5444	888.383	1404.1
293.15 K, x1 = 0.5942	898.936	1420.7
293.15 K, x1 = 0.6445	909.64	1438.3
293.15 K, x1 = 0.6931	920.029	1456
293.15 K, x1 = 0.7564	933.633	1480.3
293.15 K, x1 = 0.7917	941.225	1494.2
293.15 K, x1 = 0.8372	951.07	1512.7
293.15 K, x1 = 0.89	962.5	1534.8
293.15 K, x1 = 0.9446	974.383	1558.2
298.15 K, x1 = 0.0673	786.236	1264.5
298.15 K, x1 = 0.1073	793.946	1271.7
298.15 K, x1 = 0.1609	804.548	1282
298.15 K, x1 = 0.2065	813.772	1291.8
298.15 K, x1 = 0.2536	823.353	1302.3
298.15 K, x1 = 0.2963	832.165	1312.6
298.15 K, x1 = 0.3554	844.401	1327.8
298.15 K, x1 = 0.3981	853.363	1339.6
298.15 K, x1 = 0.4479	863.765	1354
298.15 K, x1 = 0.5055	875.962	1371.8
298.15 K, x1 = 0.5537	886.222	1387.5
298.15 K, x1 = 0.5968	895.414	1402.5
298.15 K, x1 = 0.6482	906.388	1420.6
298.15 K, x1 = 0.6939	916.254	1437.6
298.15 K, x1 = 0.753	928.945	1460.4
298.15 K, x1 = 0.795	938.08	1477.2
298.15 K, x1 = 0.8347	946.748	1493.6
298.15 K, x1 = 0.8896	958.645	1516.7
298.15 K, x1 = 0.9399	969.599	1538.5
303.15 K, x1 = 0.0581	779.854	1239.8
303.15 K, x1 = 0.1038	788.651	1248.4
303.15 K, x1 = 0.1557	798.906	1258.8
303.15 K, x1 = 0.2015	808.134	1268.8
303.15 K, x1 = 0.2526	818.565	1280.6
303.15 K, x1 = 0.2975	827.884	1291.7
303.15 K, x1 = 0.3479	838.328	1304.9
303.15 K, x1 = 0.3974	848.695	1318.7
303.15 K, x1 = 0.451	859.961	1334.5
303.15 K, x1 = 0.5005	870.442	1351.5
303.15 K, x1 = 0.5512	881.294	1366.7
303.15 K, x1 = 0.5922	890.064	1380.8
303.15 K, x1 = 0.6575	904.033	1404.2
303.15 K, x1 = 0.6956	912.351	1418.6
303.15 K, x1 = 0.7501	924.185	1439.9
303.15 K, x1 = 0.7995	934.921	1459.7
303.15 K, x1 = 0.8447	944.844	1478.6
303.15 K, x1 = 0.8956	955.901	1500
303.15 K, x1 = 0.9411	965.875	1520

— the NIST ThermoML archive (doi:10.1021/je400134d)
